Experimental data published in patent publication US20100331722A1, “Device and method for assessing operant facial pain” (priority 2004, published 2010).
“Also recorded” adds a separate entry of the source.

Test system: orofacial inflammatory pain
Assay: thermal operant orofacial pain test after carrageenan-induced orofacial inflammation
Assay type: in vivo, Male Sprague Dawley rats
Experimental: General. Male Sprague Dawley rats (200-300 g, N=18) were lightly anesthetized using isoflurane (1-2.5%, inhalation) and their hair was bilaterally removed (FIG. 1) from the orofacial region using clippers, followed by depilatory cream 1 day prior to behavioral testing. Excess cream was removed with a moistened paper towel to minimize skin irritation. Rats were food fasted for 12-15 hours prior to each testing session and following each session were provided with standard food chow. Animals were tested at the same time of the day and a recovery day from the fasting was included between the testing sessions to minimize nutritional differences from their normal food routine. Water was made available ad libitum before and after testing sessions and animal weight was recorded daily. The animals were then brought into the behavioral procedure room 1 hour prior to testing and allowed to acclimate to the temperature and ambient noise of the room. Animal testing procedures and general handling complied with the ethical guidelines and standards established by the Institutional Animal Care and Use Committee at the University of Florida and all procedures complied with the Guide for Care and Use of Laboratory Animals (Council, 1996).
Thermal Testing. A testing cage (20.3 cm W×20.3 cm D×16.2 cm H) with acrylic walls was constructed with an opening in one wall (4×6 cm) which was lined with grounded metal (aluminum) tubing. The tubing served as a thermode when connected to a water pump (Model RTE110B, NES Laboratories, Inc.) via flexible polyethylene tubing through which heated water (range: 37.7-57.2° C.) was circulated (FIGS. 2A and 2B). A standard rodent watering bottle containing a diluted (1:2 with water) sweetened condensed milk solution (Nestle Carnation Company, room temperature) was mounted outside the cage. The circulating water pump was activated and the appropriate temperature was set prior to testing the animals. The room temperature was maintained at 22±1° C. for all behavioral tests.
Unrestrained animals were placed separately in a testing cage, and the data acquisition system was activated (WinDaq Lite Data Acq DI-194, DATAQ Instruments, Inc). The bottle was then positioned in proximity to the cage such that the animal was allowed access to the reward bottle when simultaneously contacting the thermode with its face. The metal spout on the watering bottle was connected to a 13-volt DC power supply and, in series, to a multi-channel data acquisition module (WinDaq Lite Data Acq DI-194, DATAQ Instruments, Inc.). When the rat drank from the water bottle, the skin on its shaved face contacted the grounded thermode, and the animal's tongue contacted the metal spout on the water bottle, completing an electrical circuit (FIG. 2A). The bottle position was adjusted horizontally and vertically to facilitate contact of the thermode within the same shaved area of the face for each animal (FIG. 2B). The closed circuit was registered in the computer and data were collected at 60 Hz for the entire length of the experiment. Each spout contact was recorded as a ‘licking’ event. A separate circuit was established from the metal thermode to the animal by grounding the floor with an aluminum sheet for recording of ‘facial contact’ events (FIG. 3). The latter circuit was necessary to determine if the animal made an attempt at the reward bottle but was discouraged by the temperature of the thermode. The duration of each facial contact and the total number of events (licking, facial contact) were recorded. The investigator monitored online data acquisition to ensure that each recorded licking event from the first circuit corresponded to a recorded facial contact on the tubing (the second circuit). […]

[1] = one animal, retested 30 minutes after morphine 0.5 mg/kg s.c., post-inflammation

## CN1CC[C@]23c4c5ccc(O)c4O[C@H]2[C@@H](O)C=C[C@H]3[C@H]1C5 [morphine]
Morphine 0.5 mg/kg s.c. 30 minutes prior to testing, 2.5 hours post-carrageenan, 45.5° C., N=6
  effect on inflammatory hyperalgesia (operant outcome measures): all but one of these effects was completely reversed; also recorded: completely blocked
morphine-treated animals tested at 45.5° C., all measures except facial contact events
  operant outcome measures of morphine-treated inflamed animals versus normal animals: comparable to normal animals tested at 37.7 °C
One animal, retested 30 minutes after morphine 0.5 mg/kg s.c., given after the 3 hours post-inflammation trial, 30-minute operant trial
  intake (post-morphine): 17.8 g
[1]
  facial contact duration (post-morphine): 634 s
  facial contacts (post-morphine): 309
  licking events (post-morphine): 3582
  ratio facial duration/facial contact (post-morphine): 2.05
  ratio licking/contact events (post-morphine): 11.6
Single animal, repeated testing following carrageenan, before and after morphine
  operant responses after morphine, pain indices (FIG. 7): analgesic response

## carrageenan
Carrageenan 6 mg s.c. mid-cheek bilaterally, tested 3 hours post-inflammation at 45.5° C., all measures except facial contact events (FIG. 6)
  effect of carrageenan inflammation on operant outcome measures: significant reduction
